Data published in patent publication US20100159030A1, “METHODS FOR DETECTING AND MODULATING THE SENSITIVITY OF TUMOR CELLS TO ANTI-MITOTIC AGENTS AND FOR MODULATING TURMORGENICITY” (NewSouth Innovations Pty Limited, priority 2007, published 2010).
pIC50: −log10 of the molar value. Structures can show the parent of a compound that is named as a salt. Where two headings read alike, the source gives them in different places.

Tests used:
Calu-6 cells = assay: Drug-treated clonogenic assay on siRNA-transfected cells; type: cell-based, Human; conditions: βIII-tubulin siRNA silencing vs controls
Procedure: (§1) Cells were transfected for 24 h and approximately 600 cells (for Calu-6) or 150 cells (for H460) were seeded into each well of a 6-well plate and allowed to attach for 4-6 h. The cell lines used in this study were not subject to prior drug selection, and are likely to represent intrinsic drug resistance observed in lung carcinoma.
(§2) Cells were then treated with increasing concentrations of various anti-mitotic drugs. Following a 3-day incubation at 37° C., the drug-containing medium was removed and replaced with fresh complete medium. Medium was changed at 3-4 day intervals for 7 to 10 days until visible colonies formed. […] Surviving colonies were simultaneously fixed and stained with 0.5% crystal violet in methanol, rinsed with water to remove excess stain and air-dried overnight.
(§3) The colonies in each well were manually counted, and the results were presented as surviving fraction according to the formula: surviving fraction was calculated as follows: colony number/(number of cells seeded×plating efficiency), where plating efficiency is equivalent to the colony number divided by the number of cells seeded in the drug-free medium. Dose-response curves were plotted for each drug-cell line combination and inhibitory dose (ID50) values were extrapolated from this curve using GraphPad Prism program (GraphPad Software, version 4, San Diego, Calif.). ID50 was defined as the concentration of the drug required to reduce the number of colonies in drug-treated wells to 50% of that of the relevant untreated control wells. The ID50 values were the means of at least four independent experiments.
(§4) To quantitate any change in drug sensitivity, drug treated clonogenic assays were performed. Twenty-four hours after siRNA transfection, cells were harvested and plated into 6-well plates for 6 h, prior to the addition of various drugs as indicated in the figure legends. After 72 h incubation, the drug-containing media was removed and replaced with complete growth media. Medium was changed every 3 days for 7 to 10 days until visible colonies formed. Colonies were simultaneously fixed and stained with 0.5% crystal violet in methanol, and manually counted. Individual stained colonies in each well were counted and the surviving fraction was calculated as follows: colony number/(number of cells seeded×plating efficiency), where plating efficiency equals the colony number divided by the number of cells seeded in drug-free media.

NSCLC H460 cells = assay: Drug-treated clonogenic assay (surviving fraction, ID50) on siRNA/shRNA-transfected cells; type: cell-based, Human; conditions: for pIC50: Homo sapiens, read-out: ID50 (the source's name); for change in drug sensitivity (clonogenic survival): H460
Procedure: as §1, §2, §3, §4

CCRF-CEM Leukaemia cells = type: cell-based; conditions: for cross-resistance of the 2ME2-resistant cells: 2ME2-resistant sublines
Description: The tubulin-binding agent 2-methoxyestradiol (2ME2) binds to β-tubulin near the colchicine-binding site, inhibits microtubule polymerization, and induces mitotic arrest. CCRF-CEM Leukaemia cells that display increasing resistance to 2ME2 were selected, and four of the highly 2ME2 resistant leukaemia sublines were chosen for detailed analysis.

[1] = NCI-H460, Table 1A, control siRNA-transfected H460 cells
[2] = NCI-H460, Table 1A, mock-transfected H460 cells
[3] = NCI-H460, Table 1A, βII siRNA-transfected H460 cells
[4] = NCI-H460, Table 1B, control siRNA-transfected H460 cells
[5] = NCI-H460, Table 1B, mock-transfected H460 cells
[6] = NCI-H460, Table 1B, βIVb siRNA-transfected H460 cells
[7] = βIII-tubulin siRNA silencing vs controls
[8] = class II β-tubulin siRNA knockdown vs controls

| Structure (SMILES) | pIC50 (NSCLC H460 cells; [1]) | pIC50 (NSCLC H460 cells; [2]) | pIC50 (NSCLC H460 cells; [3]) | pIC50 (NSCLC H460 cells; [4]) | pIC50 (NSCLC H460 cells; [5]) | pIC50 (NSCLC H460 cells; [6]) | change in drug sensitivity (clonogenic survival) (NSCLC H460 cells; [7]) | change in drug sensitivity (clonogenic survival) (NSCLC H460 cells; [8]) | other results |
| --- | --- | --- | --- | --- | --- | --- | --- | --- | --- |
| CCC1=C[C@@H]2CN(C1)Cc1c([nH]c3ccccc13)[C@@](C(=O)OC)(c1cc3c(cc1OC)N(C)[C@H]1[C@@](O)(C(=O)OC)[C@H](OC(C)=O)[C@]4(CC)C=CCN5CC[C@]31[C@@H]54)C2 [Vinorelbine, vinorelbine] | 8.24 | 8.20 | 8.39 | 8.19 | 8.16 | 8.27 | enhanced sensitivity |  | change in drug sensitivity (clonogenic survival) (Calu-6 cells): enhanced sensitivity |
| COc1cc2c(cc1O)CC[C@@H]1[C@@H]2CC[C@]2(C)[C@@H](O)CC[C@@H]12 [2ME2, 2-methoxyestradiol] |  |  |  |  |  |  |  | significantly increased sensitivity |  |
| COc1cccc2c1C(=O)c1c(O)c3c(c(O)c1C2=O)C[C@@](O)(C(=O)CO)C[C@@H]3O[C@H]1C[C@H](N)[C@H](O)[C@H](C)O1 [doxorubicin, doxorubicin hydrochloride] |  |  |  |  |  |  | increased sensitivity |  |  |
| C/C(=C\c1csc(C)n1)[C@@H]1C[C@@H]2O[C@]2(C)CCC[C@H](C)[C@H](O)[C@@H](C)C(=O)C(C)(C)[C@@H](O)CC(=O)O1 [epothilone B] |  |  |  |  |  |  | increased the sensitivity | no significant change in drug sensitivity | change in drug sensitivity (clonogenic survival) (Calu-6 cells): increased the sensitivity; change in drug sensitivity (clonogenic survival) (NSCLC H460 cells; class IVb β-tubulin siRNA knockdown vs controls): significantly more resistant; cross-resistance of the 2ME2-resistant cells (CCRF-CEM Leukaemia cells): hypersensitive |
| CC[C@]1(O)C[C@@H]2CN(CCc3c([nH]c4ccccc34)[C@@](C(=O)OC)(c3cc4c(cc3OC)N(C)[C@H]3[C@@](O)(C(=O)OC)[C@H](OC(C)=O)[C@]5(CC)C=CCN6CC[C@]43[C@@H]65)C2)C1 [Vinblastine, vinblastine] | 9.13 | 9.18 | 9.36 | 9.21 | 9.17 | 9.76 |  |  |  |
| CC[C@]12C=CCN3CC[C@@]4(c5cc([C@@]6(C(=O)OC)C[C@@H]7C[C@@H](C(C)(F)F)CN(Cc8c6[nH]c6ccccc86)C7)c(OC)cc5N(C)[C@H]4[C@@](O)(C(=O)OC)[C@@H]1OC(C)=O)[C@@H]32 [Vinflunine, vinflunine] | 7.52 | 7.51 | 7.72 | 7.52 | 7.50 | 7.72 |  |  |  |
| COc1cc([C@@H]2c3cc4c(cc3[C@@H](O[C@@H]3O[C@@H]5CO[C@@H](C)O[C@H]5[C@H](O)[C@H]3O)[C@H]3COC(=O)[C@H]23)OCO4)cc(OC)c1O [VP-16, Etoposide] |  |  |  |  |  |  | increased sensitivity |  |  |
| COc1cc2c(c(OC)c1OC)-c1ccc(OC)c(=O)cc1[C@@H](NC(C)=O)CC2 [colchicine] |  |  |  |  |  |  |  | significantly increased sensitivity | cross-resistance of the 2ME2-resistant cells (CCRF-CEM Leukaemia cells): not cross resistant; cross-resistance (CCRF-CEM Leukaemia cells; lowest resistant subline CEM/2ME2-3.6R only): cross-resistance |
